Measured values reported in the NIST ThermoML archive (doi:10.1021/je800831d).

Tests used:
[1] = 101 kPa, Liquid
[2] = xn = mol fraction of the nth substance listed; details: 101 kPa, Liquid

C1CCCC1 [cyclopentane]
[1]
Details	mass density [kg/m3]
298.15 K	733.634
308.15 K	726.571

C1CCCC1 [cyclopentane] + CCCCCCCO
mass density [kg/m3], [2]
Details	298.15 K	308.15 K
x1 = 0.0632	815.837	808.629
x1 = 0.1965	808.334	800.856
x1 = 0.3173	800.287	792.895
x1 = 0.4244	793.064	785.675
x1 = 0.4606	790.282	782.889
x1 = 0.5084	786.531	779.091
x1 = 0.6664	772.628	764.753
x1 = 0.7675	762.185	754.805
x1 = 0.8534	752.769	745.466
x1 = 0.9644	739.018	731.663
x1 = 1	733.634	726.571

C1CCCC1 [cyclopentane] + CCCCCO
mass density [kg/m3], [2]
Details	298.15 K	308.15 K
x1 = 0.0155	810.22	802.763
x1 = 0.1886	799.34	791.417
x1 = 0.2742	793.439	785.673
x1 = 0.3746	786.395	778.336
x1 = 0.3884	785.467	777.389
x1 = 0.4798	779.082	770.553
x1 = 0.5738	771.559	763.458
x1 = 0.6868	762.096	754.298
x1 = 0.7543	756.486	748.638
x1 = 0.8131	751.07	743.306
x1 = 0.9079	742.377	735.151
x1 = 1	733.634	726.571

C1CCCC1 [cyclopentane] + CCCO
mass density [kg/m3], [2]
Details	298.15 K	308.15 K
x1 = 0.0553	795.275	786.98
x1 = 0.1627	786.754	778.045
x1 = 0.2341	781.37	772.538
x1 = 0.3137	775.778	766.718
x1 = 0.4691	764.862	755.363
x1 = 0.5666	758.623	748.897
x1 = 0.6338	754.486	744.566
x1 = 0.7688	746.451	737.144
x1 = 0.8446	742.132	733.21
x1 = 0.9167	738.181	729.51
x1 = 1	733.634	726.571

CCCCCCCO [heptan-1-ol]
[1]
Details	mass density [kg/m3]
298.15 K	818.813
308.15 K	811.73

CCCCCCCO [heptan-1-ol] + C1CCCC1
[2], x2 = 0
Details	mass density [kg/m3]
298.15 K	818.813
308.15 K	811.73

CCCCCO [pentan-1-ol]
[1]
Details	mass density [kg/m3]
298.15 K	811.037
308.15 K	803.683

CCCCCO [pentan-1-ol] + C1CCCC1
[2], x2 = 0
Details	mass density [kg/m3]
298.15 K	811.037
308.15 K	803.683

CCCO [propan-1-ol]
[1]
Details	mass density [kg/m3]
298.15 K	799.813
308.15 K	791.692

CCCO [propan-1-ol] + C1CCCC1
[2], x2 = 0
Details	mass density [kg/m3]
298.15 K	799.813
308.15 K	791.692
